28 molecules from US20230159510A1, “NOVEL PRMT5 INHIBITORS” (AMGEN INC., priority 2020, published 2023) can be followed below.

The structures appear in SMILES notation.

One test relates to HCT116 WT cells. Nature of the test: HCT116 proliferation assay, WT cells (CellTiter-Glo, 6 days). In kind it is cell-based. Conditions: Homo sapiens, HCT-116, 144 h, read-out: Prolif_HCT116-WT IC50. The protocol: (§1) HCT116 MTAP null and WT cells were seeded in 96-well tissue culture plates in RPMI 1640 media + 10% fetal bovine serum. Plates were incubated overnight at 37° C. and 5% CO2. Cells were then treated with a 8- or 9-point serial dilution of compound, using a top concentration of 1 or 10 µM, 1:3 serial dilution steps and, a DMSO-only control. Cells were incubated in the presence of drug for 6 days. Effects on cell viability were measured with the CellTiter-Glo® Luminescent Cell Viability Assay (Promega) per manufacturer’s recommendation. Assay plates were read on an EnVision™ Multilabel Reader using the Ultra-Sensitive luminescence module.

The subject of a further test is HCT116 MTAP null cells. In words: HCT116 proliferation assay, MTAP null cells (CellTiter-Glo, 6 days). Conditions: HCT116-MTAP null, 144 h, read-out: Protif_ HCT116-MTAP null IC50. The test is classed as cell-based. The protocol: as §1

As for `Cc1cc2cc(C(=O)N(Cc3ccc(C(F)(F)F)cn3)[C@@H]3COCc4ncccc43)ccc2nc1N` (single isomer, unassigned) [Example 814], the IC50 came to 1760 nM with HCT116 WT cells and 62 nM with HCT116 MTAP null cells.

On to `Cc1cc2cc(C(=O)N(Cc3ccc(OCC(F)(F)F)nn3)[C@H](C)c3ncccn3)ccc2nc1N` [Example 790, (R)-2-amino-3-methyl-N-(1-(pyrimidin-2-yl)ethyl)-N-((6-(2,2,2-trifluoroethoxy)pyridazin-3-yl)methyl) quinoline-6-carboxamide], for which the IC50 turned out to be 5160 nM in the test on HCT116 WT cells and 156 nM in the test with HCT116 MTAP null cells.

On to `C[C@H](c1ncccn1)N(Cc1ccc(Br)nn1)C(=O)c1ccc2nc(N)c(I)cc2c1` [Example 767, (R)-2-amino-N-((6-bromopyridazin-3-yl)methyl)-3-iodo-N-(1-(pyrimidin-2-yl)ethyl)quinoline-6-carboxamide], for which the values for the IC50 in the test with HCT116 WT cells and with HCT116 MTAP null cells were 3550 nM and 56 nM, respectively. The matching figures for `Cc1cc2cc(C(=O)N(Cc3ccc(C(F)(F)F)cn3)[C@@H]3CCC[C@H]3C#N)ccc2nc1N` (single isomer, unassigned) [Example 812]: 1040 nM and 43 nM. On to `CC[C@H](c1ncccn1)N(Cc1ccc(C#N)cn1)C(=O)c1ccc2nc(N)c(I)cc2c1` [Example 760, (R)-2-amino-N-((5-cyanopyridin-2-yl)methyl)-3-iodo-N-(1-(pyrimidin-2-yl)propyl)quinoline-6-carboxamide], for which the IC50 came out at 2930 nM in the test on HCT116 WT cells and 100 nM in the test on HCT116 MTAP null cells.

Turning to `CC1COCCC1N(Cc1ccc(C(F)(F)F)cn1)C(=O)c1ccc2nc(N)c(Br)cc2c1` (stereo not shown) [Example 830, 2-amino-3-bromo-N-(3-methyltetrahydro-2H-pyran-4-yl)-N-((5-(trifluoromethyl)pyridin-2-yl)methyl)quinoline-6-carboxamide], the IC50 was over 10000 nM in the test on HCT116 WT cells and 380 nM with HCT116 MTAP null cells. As to `Nc1nc2ccc(C(=O)N(Cc3ccc(C(F)(F)F)cn3)C3CCOC3C3CC3)cc2cc1Br` (stereo not shown) [Example 832, 2-amino-3-bromo-N-(2-cyclopropyltetrahydrofuran-3-yl)-N-((5-(trifluoromethyl)pyridin-2-yl)methyl)quinoline-6-carboxamide], the IC50 in the test with HCT116 WT cells was over 10000 nM; in the test with HCT116 MTAP null cells, 380 nM. `Cc1cc2cc(C(=O)N(Cc3cc[nH]c3)Cc3ccc(C(F)(F)F)cn3)ccc2nc1N` [Example 583, N-((1H-pyrrol-3-yl)methyl)-2-amino-3-methyl-N-((5-(trifluoromethyl)pyridin-2-yl)methyl)quinoline-6-carboxamide]: the IC50 in the test on HCT116 WT cells is over 1000 nM; in the test on HCT116 MTAP null cells, 140 nM. Turning to `Cc1cc2cc(C(=O)N(Cc3ccc(C(F)(F)F)cn3)C(c3ncccn3)C(C)C)ccc2nc1N` (stereo not shown) [Example 805, 2-amino-3-methyl-N-(2-methyl-1-(pyrimidin-2-yl)propyl)-N-((5-(trifluoromethyl)pyridin-2-yl)methyl)quinoline-6-carboxamide], the IC50 in the test on HCT116 WT cells is 2000 nM; in the test on HCT116 MTAP null cells it was 144 nM. The matching figures for `Cc1cc2cc(C(=O)N(Cc3ccc(Br)nn3)[C@@H]3CCCn4ncnc43)c(F)cc2nc1N` [Example 757, (R)-2-amino-N-((6-bromopyridazin-3-yl)methyl)-7-fluoro-3-methyl-N-(5,6,7,8-tetrahydro-[1,2,4]triazolo[1,5-a]pyridin-8-yl)quinoline-6-carboxamide]: 8870 nM and 313 nM.

Consider `Cc1cc2cc(C(=O)N(Cc3ccc4c(c3)NC(=O)CO4)Cc3ccccc3F)ccc2nc1N` [Example 569, 2-amino-N-[(2-fluorophenyl)methyl]-3-methyl-N-[(3-oxo-4H-1,4-benzoxazin-6-yl)methyl] quinoline-6-carboxamide], for which the IC50 in the test with HCT116 WT cells came to 7160 nM; in the test with HCT116 MTAP null cells it was 331 nM. Take `CO[C@@H]1COCC[C@H]1N(Cc1ccc(C(F)(F)F)cn1)C(=O)c1ccc2nc(N)c(Br)cc2c1` [Example 829, 2-amino-3-bromo-N-((3S,4R)-3-methoxytetrahydro-2H-pyran-4-yl)-N-((5-(trifluoromethyl)pyridin-2-yl)methyl) quinoline-6-carboxamide]: the IC50 is over 10000 nM with HCT116 WT cells and 840 nM with HCT116 MTAP null cells. Regarding `Cc1cc2cc(C(=O)N(Cc3ccccc3F)Cc3c[nH]c4cccnc34)ccc2nc1N` [Example 711, 2-amino-N-[(2-fluorophenyl)methy1] -3-methyl-N-(1H-pyrrolo[3,2-b]pyridin-3-ylmethyl)quinoline-6-carboxamide], the IC50 in the test with HCT116 WT cells was found to be 9780 nM; in the test on HCT116 MTAP null cells, 279 nM.

Turning to `CC(C)CN(Cc1ccc(C(F)(F)F)cn1)C(=O)c1ccc2nc(N)c(-c3ccccc3)cc2c1` [Example 834, 2-Amino-N-(2-methylpropyl)-3-phenyl-N-((5-(trifluoromethyl)-2-pyridinyl)methyl)-6-quinolinecarboxamide], the 50% inhibitory concentration (IC50) with HCT116 WT cells was 3190 nM; in the test on HCT116 MTAP null cells, 523 nM. For `CCOc1ccc(CN(C(=O)c2ccc3nc(N)c(Br)cc3c2)[C@H](C)c2ncccn2)nn1` [Example 729, 2-amino-3-bromo-N-((6-ethoxy-3-pyridazinyl)methyl)-N-((1R)-1-(2-pyrimidinyl)ethyl)-6-quinolinecarboxamide], the values for the IC50 with HCT116 WT cells and with HCT116 MTAP null cells were 6900 nM and 114 nM, respectively. On to `COC[C@H](C1CC1)N(Cc1ccc(C(F)(F)F)cn1)C(=O)c1ccc2nc(N)c(C)cc2c1` (single isomer, unassigned) [Example 810], for which the IC50 stood at 5400 nM in the test with HCT116 WT cells and 594 nM with HCT116 MTAP null cells.

`C[C@H](c1ncccn1)N(Cc1ccc(C2CC2)nn1)C(=O)c1ccc2nc(N)c(I)cc2c1` [Example 763, (R)-2-amino-N-((6-cyclopropylpyridazin-3-yl)methyl)-3-iodo-N-(1-(pyrimidin-2-yl)ethyl)quinoline-6-carboxamide]: the results for the IC50 with HCT116 WT cells and in the test on HCT116 MTAP null cells were 4340 nM and 57 nM, respectively. In the case of `Cc1cc2cc(C(=O)N(Cc3ccc(OC(F)(F)F)nn3)C(C)c3ncccn3)ccc2nc1N` (stereo not shown) [Example 791, 2-amino-3-methyl-N-(1-(pyrimidin-2-yl)ethyl)-N-((6-(trifluoromethoxy)pyridazin-3-yl)methyl)quinoline-6-carboxamide], the IC50 in the test on HCT116 WT cells amounted to 1720 nM; in the test on HCT116 MTAP null cells, 60 nM. The matching figures for `C[C@H](c1ncccn1)N(Cc1cc(Cl)c(C#N)cn1)C(=O)c1ccc2nc(N)c(Br)cc2c1` [Example 745, (R)-2-amino-3-bromo-N-((4-chloro-5-cyanopyridin-2-yl)methyl)-N-(1-(pyrimidin-2-yl)ethyl)quinoline-6-carboxamide]: 1240 nM and 223 nM.

On to `C[C@H](c1cccc(F)n1)N(Cc1ccc(C(F)(F)F)cn1)C(=O)c1cnc2nc(N)c(Br)cc2c1` [Example 800, (R)-7-amino-6-bromo-N-(1-(6-fluoropyridin-2-yl)ethyl)-N-((5-(trifluoromethyl)pyridin-2-yl)methyl)-1,8-naphthyridine-3-carboxamide], for which the IC50 in the test on HCT116 WT cells was 2790 nM; with HCT116 MTAP null cells, 173 nM. For `Cc1cc2c(C)c(C(=O)N(Cc3ccc(C(F)(F)F)cn3)[C@H](C)c3ncccn3)ccc2nc1N` [Example 770, 2-amino-3,5-dimethyl-N-((1R)-1-(2-pyrimidinyl)ethyl)-N-((5-(trifluoromethyl)-2-pyridinyl)methyl)-6-quinolinecarboxamide], in that order: 4750 nM and 132 nM. As for `COC[C@@H](C)N(Cc1ccc(C#N)cn1)C(=O)c1ccc2nc(N)c(Br)cc2c1` [Example 733, 2-amino-3-bromo-N-((5-cyano-2-pyridinyl)methyl)-N-((2R)-1-methoxy-2-propanyl)-6-quinolinecarboxamide], the IC50 in the test with HCT116 WT cells was over 10000 nM; in the test on HCT116 MTAP null cells, 434 nM. The matching figures for `C[C@H](c1ncccn1)N(Cc1ccc(C(F)(F)F)cn1)C(=O)c1cnc2nc(N)c(I)cc2c1` [Example 838, (R)-7-amino-6-iodo-N-(1-(pyrimidin-2-yl)ethyl)-N-((5-(trifluoromethyl)pyridin-2-yl)methyl)-1,8-naphthyridine-3-carboxamide]: 1650 nM and 56 nM.

Take `Cc1cc2cc(C(=O)N(Cc3ccc(C(F)(F)F)cn3)[C@H](C)c3cccc(C#N)n3)ccc2nc1N` (single isomer, unassigned) [Example 811]: the IC50 in the test with HCT116 WT cells is over 10000 nM; with HCT116 MTAP null cells, 422 nM. Regarding `CC(c1ncccc1F)N(Cc1ccc(N2CCOCC2)nn1)C(=O)c1cnc2nc(N)c(Br)cc2c1` (stereo in doubt) [Example 730, 7-amino-6-bromo-N-((1R)-1-(3-fluoro-2-pyridinyl)ethyl)-N-((6-(4-morpholinyl)-3-pyridazinyl)methyl)-1,8-naphthyridine-3-carboxamide], the IC50 in the test with HCT116 WT cells is 8460 nM; in the test on HCT116 MTAP null cells, 507 nM. `COc1ccc(CN(C(=O)c2ccc3nc(N)c(Br)cc3c2)C(C)c2ncn(C)n2)nn1` (stereo in doubt) [Example 755, (R)-2-amino-3-bromo-N-((6-methoxypyridazin-3-yl)methyl)-N-(1-(1-methyl-1H-1,2,4-triazol-3-yl)ethyl)quinoline-6-carboxamide]: the results for the IC50 in the test on HCT116 WT cells and with HCT116 MTAP null cells were over 10000 nM and 184 nM, respectively. For `CC(=O)c1ccc(CN(C(=O)c2ccc3nc(N)c(C)cc3c2)[C@H](C)c2ncccn2)nc1` [Example 754, N-((5-acetyl-2-pyridinyl)methyl)-2-amino-3-methyl-N-((1R)-1-(2-pyrimidinyl)ethyl)-6-quinolinecarboxamide], in that order: 4110 nM and 130 nM. With `C#CCCCN(Cc1ccc(C(F)(F)F)cn1)C(=O)c1ccc2nc(N)c(C)cc2c1` [Example 692, 2-amino-3-methyl-N-pent-4-ynyl-N-[[5-(trifluoromethyl)-2-pyridyl]methyl] quinoline-6-carboxamide], the IC50 with HCT116 MTAP null cells was over 1000 nM.
